{"source": "patent US20240366571A1", "about": "“MODULATORS OF SK4 POTASSIUM CHANNEL AND USES THEREOF” (Ramot at Tel-Aviv University Ltd., priority 2022, published 2024)", "key": {"human SK4 [1]": {"molecular_target": "T1, human SK4 (Homo sapiens, UniProt O15554)", "T1 construct": "expressed in transfected cells; host or cells: CHO cells", "test": "Whole-cell patch-clamp of WT SK4 K+ currents in transfected CHO cells", "type": "cell-based", "settings": "WT SK4 currents in absence and presence of 20 μM compound", "description": "Constructs: For CHO cell transfection, the following were cloned: human SK1, rat SK2, human SK3, and rat calmodulin into the pcDNA3 vector, human SK4 into pEGFP-C1 vector, and PIP4,5-kinase into an IRES-dsRed plasmid. The mutations were introduced using the PCR-based QuikChange™ site-directed mutagenesis (Stratagene®) and were verified by full sequencing of the entire plasmid vector.\nCell Culture and Transfection: Chinese hamster ovary (CHO) cells were grown in Dulbecco's modified Eagle's medium supplemented with 2 millimolar (mM) glutamine, 10% fetal calf serum, and antibiotics. In brief, 40,000 cells seeded on poly-L-lysine-coated glass coverslips (13 millimeter (mm) in diameter) in a 24-multiwell plate were transfected with 0.5 microgram (μg) pEGFP-SK4/0.5 μg mutant SK4, 1.2 μg dsRed-PIP4,5-kinase or with 1 μg SK1/SK2/SK3 together with pIRES-CD8 (0.3 μg) as a marker for transfection. Transfection was performed using TransIT-LT1 Transfection Reagent (Mirus Bio) according to the manufacturer's protocol. For electrophysiology, transfected cells were visualized approximately 40 hours after transfection with a Zeiss Axiovert 35 inverted florescence microscope.\nWhole-cell patch-clamp recording: Voltage-clamp recordings were performed using the whole-cell configuration of the patch-clamp technique. Signals were amplified using an […] patch-clamp amplifier (Molecular Devices), sampled at 5 kHz and filtered at 2.4 kHz via a four pole Bessel low pass filter. Data were acquired using pClamp™ 10.5 software in conjunction with an Axon™ DigiData® 1440A interface (Molecular Devices). The patch pipettes were pulled from borosilicate glass (Harvard Apparatus) with a resistance of 3-5 megaohms (MΩ). The intracellular pipette solution contained 130 mM KCl, 5 mM EGTA, 10 mM HEPES, pH 7.3 (adjusted with KOH), and CaCl2 calculated for a final concentration of 1 μM free-Ca^2+, by MAXCHELATOR (WEBMAXC STANDARD) software, with sucrose added to adjust osmolarity to 290 mosM. The external solution (310 mosM) contained 140 mM NaCl, 4 mM KCl, 1.8 mM CaCl2, 1.2 mM MgCl2, 11 mM glucose, and 5.5 mM HEPES adjusted with NaOH to pH 7.3. CHO cells were held at −90 millivolt (mV) and SK4 K^+ currents were activated using a voltage ramp protocol from −100 mV to +60 mV for 150 milliseconds. Electrophysiological data analysis was performed using the Clampfit program (pClamp™ 10.5; Molecular Devices).\nSome of the compounds were tested by comparing trace of WT SK4 channel currents in the absence and presence of 20 μM of the tested compound."}, "human SK4 [2]": {"molecular_target": "T1, human SK4", "test": "Whole-cell patch-clamp of WT SK4 K+ currents in transfected CHO cells", "type": "cell-based", "settings": "10 μM"}, "[3]": {"tested_on": "isolated guinea pig hearts", "test": "Langendorff perfused isolated guinea pig hearts", "settings": "10 μM", "description": "(§1) Animals: Adult male Sprague-Dawley rats (n=56, 200-250 grams) and Guinea pigs (n=19, 400-700 grams) obtained from Envigo Laboratories (Jerusalem, Israel) were bred and grown in Ben-Gurion University of the Negev, Israel. Experiments in rats and guinea pigs were approved by the institutional ethics committee of Ben-Gurion University of the Negev, Israel (Protocol No. IL-24-05-2020(D) and were carried out in strict accordance with the Guide for the Care and Use of Laboratory Animals of the National Institutes of Health. The animals were kept under standardized conditions: 12:12 light: dark cycles at 20-24° C. and 30-70% relative humidity.\n(§2) Perfused isolated hearts—Langendorff method: The isolated heart experiment setup was performed as described in Etzion et al., Am J Physiol Heart Circ Physiol (2008) 295, H1460-1469; and Mor et al., J Pharmacol Exp Ther (2013) 344, 59-67.]. Briefly, each animal was anesthetized with 2% isoflurane and an intraperitoneal (IP) injection of pentobarbital (60 mg/kg), followed by IP injection of Heparin (1000 U/kg). The heart was rapidly excised and placed into ice-cold Tyrode's buffer solution (consisted of 140 mM NaCl, 5.4 mM KCl, 0.5 mM MgCl2, 2.5 mM CaCl2, 0.39 mM NaH2PO4, 10 mM HEPES and 11 mM glucose, and titrated to pH 7.4 with NaOH). The aorta was cannulated and connected to a pre-heated (37° C.) and oxygenated perfusion system with Tyrode's solution while perfusion pressure was maintained at about 70 mmHg throughout the experiment. Prior to the experiment, the heart was left in Tyrode's solution to stabilize for 20 minutes for hemodynamic measurements, the left atrial appendage was excised, and a collapsed latex balloon was inserted into the left ventricle (LV) through the mitral valve. Once positioned, the balloon was filled with double distilled water reaching an end-diastolic pressure of 10-15 mmHg. Coronary perfusion pressure and LV pressure were recorded by a pressure amplifier (ETH-256C amplifier and B-100 probes, iWorx, NH, USA). Electrophysiological signals were recorded from the high right atrium (HRA) via a miniature quadripolar hook electrode (for simultaneous pacing and recording) and from the LV via a bipolar hook electrode. Electrical signals were filtered (1-2 kHz) and recorded by two voltage amplifiers (Model 3000, A-M Systems, Carlsberg, WA, USA). Signals were interfaced with a PC using an A/D converter (PCI-6024E, National Instruments, Austin TX, USA) and a custom-designed program developed with LabVIEW programing language (National Instruments, Austin, TX, USA) to control signal acquisition, data saving and off-line analysis. Measured physiological parameters during the experiment included perfusion flow (ml/minute) as a marker for coronary perfusion pressure, LV developed pressure, dP/dt±(representing the rate of rise of left ventricular pressure during isovolumetric contraction as a marker for LV contractility), heart rate, PR, and RR intervals. Tram-34 and BA6b9 were applied for a 20-minutes incubation period and physiological parameters were recorded.\n(§3) Effective refractory period measurements: Using both custom-made quadripolar electrode inserted on the HRA and two bipolar electrodes (recording and pacing) on the LV, allowed measurement of the effective refractory period (ERP) at the atrial level (atrial effective refractory period, AERP), atrioventricular level (AVERP), and ventricular level (VERP). For ERP measurement, a programmed S1S2 stimulation protocol was performed using double diastolic threshold intensity. The protocol consisted of ten S1-S2 intervals of 150 milliseconds (ms) followed by an S1-S2 interval that was reduced by 1 ms each time, until pacing capture failed three consecutive times. AERP, AVERP, and VERP were measured and recorded prior and after exposure to the used inhibitor, either Tram-34 or BA6b9."}, "isolated rat hearts": {"tested_on": "isolated rat hearts", "test": "Langendorff perfused isolated rat hearts: electrophysiology and hemodynamics", "settings": "10 μM", "description": "as §1, §2, §3"}, "WT SK4 channels": {"molecular_target": "T2, WT SK4 channels (Homo sapiens, UniProt O15554)", "T2 construct": "expressed in transfected cells; host or cells: CHO cells", "test": "Inside-out macro-patch recording of WT SK4 channels in transfected CHO cells", "type": "cell-based", "settings": "1 μM free-Ca2+", "description": "Inside-out macro-patch recording: To measure the Ca^2+ concentration dependence for SK4 channel activation, CHO cells were co-transfected with plasmids encoding WT SK4 (1 μg) and WT CaM (1 μg) using the Lipofectamine reagent at a ratio of 1:2. The cells were transfected 48 hours prior to recordings. The patch pipettes were pulled and fire-polished with a MF-900 micro-forge (Narashige) to reach an internal diameter of […]. The resistance of the patch electrodes ranged from 2-3 MΩ. The pipette solution contained 135 mM KCl, 1 mM MgSO4, 0.91 mM CaCl2, and 10 mM HEPES at pH 7.3. The bath solution contained 135 mM KCl, 5 mM EGTA, and 10 mM HEPES at pH 7.3. EGTA was used to titer the different Ca^2+ concentration solutions, calculated using the software by C. Patton of Stanford University (http://maxchelator(dot)stanford(dot)edu/). Currents were recorded by 10 repetitive 1 second duration voltage ramps from −100 mV to +100 mV from a holding potential of 0 mV. The current amplitudes in response to increasing Ca^2+ concentrations were normalized to those obtained at a saturating Ca^2+ concentration (3 μM). Furthermore, to determine the Ca^2+ concentration dependence for activation in the presence of a tested compound, such as the exemplary compound BA6b9 (10 μM), the current amplitudes were normalized to those obtained at large maximal Ca^2+ concentration of 10 μM. For PIP2-dependent activation, PIP2 affinity to the SK4 channel was also examined in the inside-out configuration. The dose-response curve for PIP2 was measured with increasing concentrations of diC8-PIP2 in the presence of 1 μM Ca^2+. The diC8-PIP2 effect on the channel current was measured after complete depletion of the native PIP2 using sonicated poly-L-lysine (PLL) 50 μg/ml and a subsequent 2-minute washout. […] Apparent EC50 values for Ca^2+ or diC8-PIP2 were determined by fitting the data points to a standard dose-response curve Y=100/(1+10^(log EC(50)−X)*HillSlope).\nThe calcium dependence of the human SK4 K^+ channel in transfected CHO cells was characterized using inside-out macro-patches. The expressed currents were recorded in response to voltage ramps (−100 millivolt (mV) to +100 mV for 1 seconds) and by increasing the free-Ca^2+ concentrations applied to the internal face of the membrane. […]\nTo examine whether PIP2 is involved in the modulation of the SK4 channel, channel trafficking to the plasma membrane was increased by co-transfecting CHO cells with plasmid DNAs encoding for the channel and for wild type (WT) CaM. The resulting currents were recorded from inside-out macro-patches, where the intracellular solution contained a saturating concentration of 1 μM free-Ca^2+, as shown in FIG. 1B (see, black plot)."}, "WT SK2 channels": {"molecular_target": "WT SK2 channels (Rattus norvegicus, UniProt P70604)", "settings": "Zhang et al., Nat Chem Biol (2014); cited from earlier work"}}, "note": "“Also recorded” adds a separate entry of the source.", "data": [{"compound": "O=c1[nH]c2ccc(Br)cc2[nH]1", "note": "[BA100, 5-bromo-1,3-dihydro-2H-benzo[d]imidazol-2-one]", "values": [{"measurement": "SK4 K+ channel modulating activity", "setting": "human SK4 [1]", "value": "activated; also recorded: activation; also recorded: Activator"}, {"measurement": "activation (increase) of WT SK4 current", "setting": "human SK4 [2]", "value": 28, "unit": "%"}]}, {"compound": "O=c1[nH]c2cc(Cl)c(Cl)cc2[nH]1", "note": "[BA40, 5,6-dichloro-1,3-dihydro-2H-benzo[d]imidazol-2-one]", "values": [{"measurement": "SK4 K+ channel modulating activity", "setting": "human SK4 [1]", "value": "activated; also recorded: activation; also recorded: Activator"}, {"measurement": "activation (increase) of WT SK4 current", "setting": "human SK4 [2]", "value": 42, "unit": "%"}, {"measurement": "activation of SK4 channel (fold)", "setting": "human SK4 [2]; representative trace", "value": "about 1.4 fold"}]}, {"compound": "Clc1ccccc1C(c1ccccc1)(c1ccccc1)n1cccn1", "note": "[Tram-34, 1-[(2-chlorophenyl)diphenylmethyl]-1H-pyrazole, reference compound]", "values": [{"measurement": "AERP (effect)", "setting": "[3]", "value": "significantly prolonged"}, {"measurement": "AVERP (effect)", "setting": "[3]", "value": "significantly prolonged"}, {"measurement": "action potential activation current (atrial and ventricular pacing thresholds)", "setting": "[3]", "value": "Neither Tram-34 nor BA6b9 affected"}, {"measurement": "coronary flow (perfusion flow velocity)", "setting": "[3]", "value": "no effect"}, {"measurement": "coronary flow (perfusion flow velocity)", "setting": "isolated rat hearts", "value": "significantly lowered"}, {"measurement": "left ventricular filling pressure (developed pressure)", "setting": "isolated rat hearts", "value": "did not affect"}, {"measurement": "maximal pressure change in left ventricular contractility (dP/dt max)", "setting": "isolated rat hearts", "value": "reduces both parameters"}, {"measurement": "minimal pressure change in left ventricular contractility (dP/dt min)", "setting": "isolated rat hearts", "value": "reduces both parameters"}]}, {"compound": "CCCCCCCC(=O)OC[C@H](COP(=O)(O)O[C@@H]1[C@H](O)[C@H](O)[C@@H](OP(=O)(O)O)[C@H](OP(=O)(O)O)[C@H]1O)OC(=O)CCCCCCC", "note": "[diC8-PIP2, dioctanoyl, phosphatidylinositol 4,5 bisphosphate, reference compound]", "values": [{"measurement": "EC50", "setting": "WT SK4 channels; internal application after PIP2 depletion by PLL, read-out: EC50 of activation of WT SK4 channels", "value": 154, "unit": "nM"}, {"measurement": "EC50", "setting": "WT SK2 channels", "value": 1900, "unit": "nM"}]}, {"compound": "poly-L-lysine hydrochloride [PLL, reference compound]", "values": [{"measurement": "decrease (inhibition) of SK4 current", "setting": "WT SK4 channels; 50 μg/ml internal application, 1 minute", "value": 68, "unit": "%"}]}]}
